# Test system: urinary bladder pressure, anesthetized minipigs
# Assay: Cystometry
# Assay type: in vivo, minipig (Gottingen, Sinclair)
# Details: GR 159897 1 mg/kg IV, 15 min prior to LMN-NKA, N=2, anesthetized minipigs, DT-063
structure (smiles),measurement,value
"COC1(C[S@@+]([O-])c2ccccc2)CCN(CCc2c[nH]c3ccc(F)cc23)CC1 [GR 159897, 5-Fluoro-3-[2-[4-methoxy-4-[[(R)-phenylsulphinyl]methyl]-1-piperidinyl]ethyl]-1H-indole]",effect on increase in bladder pressure induced by 100 μg/kg SC of LMN-NKA,blocked

# From PMC6739136 (Neuropeptides, 2019)
